Tests used:
[1] = tested on: barnyard grass; assay: Test Example 3: herbicidal effect by foliage application, Wagner pot (Table 18, symbol H); type: in vivo, barnyard grass (Echinochloa crus-galli); conditions: 320 g/ha
In short: (§1)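 Plants were sown in alluvial soil held under 0.1–0.5 cm standing water and grown 14 days in a greenhouse at 25–30 °C. An emulsifiable formulation, water-diluted to the set dose, was then sprayed onto the foliage, and effects were scored three weeks later using previously defined criteria.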

[2] = tested on: barnyard grass; assay: Test Example 4: herbicidal effect by soil treatment (Table 19, symbol H); type: in vivo, barnyard grass (Echinochloa crus-galli)
In short: (§2)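 Herbicidal effect was rated 3 weeks after treatment, using the scoring criteria of an earlier test. The compound, formulated as an emulsion and diluted in water to a set herbicide amount, had been sprayed uniformly on soil over freshly sown seeds. Growth took place in a greenhouse at 25° C. to 30° C.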

[3] = tested on: blackgrass; assay: Test Example 5: herbicidal effect by foliage application, plastic box (Table 20, symbol J); type: in vivo, blackgrass (Alopecurus myosuroides); conditions: 320 g/ha
In short: (§3)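 Foliar spray test: emulsion formulation diluted in water to a set application rate, sprayed onto 14-day-old plants raised in diluvial soil at 25° C to 30° C under glass. Both herbicidal effect and crop effect rated visually three weeks later.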

[4] = tested on: southern crabgrass; assay: Test Example 5: herbicidal effect by foliage application, plastic box (Table 20, symbol F); type: in vivo, southern crabgrass (Digitaria ciliaris); conditions: 320 g/ha
In short: as §3

[5] = tested on: velvetleaf; assay: Test Example 4: herbicidal effect by soil treatment (Table 19, symbol M); type: in vivo, velvetleaf (Abutilon theophrasti)
In short: as §2

[6] = tested on: redroot pigweed; assay: Test Example 4: herbicidal effect by soil treatment (Table 19, symbol N); type: in vivo, redroot pigweed (Amaranthus retroflexus)
In short: as §2

[7] = tested on: southern crabgrass; assay: Test Example 4: herbicidal effect by soil treatment (Table 19, symbol F); type: in vivo, southern crabgrass (Digitaria ciliaris)
In short: as §2

[8] = tested on: late watergrass; assay: Test Example 2: herbicidal activity, application during weed generation under submerged conditions (Table 17, symbol A); type: in vivo, late watergrass (Echinochloa oryzicola); conditions: AAH 320 g/ha; application during weed generation, submerged conditions
In short: (§4)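 Wagner pot, alluvial soil, 4 cm flood; mixed sowing of all species; greenhouse 25° C.–30° C. Emulsifiable formulation, water-diluted to predetermined dose, applied to paddy water at 1–2 leaf stage. Effect rated at 3 wk using the earlier test's scoring criteria.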

[9] = tested on: green foxtail; assay: Test Example 5: herbicidal effect by foliage application, plastic box (Table 20, symbol G); type: in vivo, green foxtail (Setaria viridis); conditions: 320 g/ha
In short: as §3

[10] = tested on: Italian ryegrass; assay: Test Example 5: herbicidal effect by foliage application, plastic box (Table 20, symbol K); type: in vivo, Italian ryegrass (Lolium multiflorum); conditions: 320 g/ha
In short: as §3

[11] = tested on: lambsquarters; assay: Test Example 5: herbicidal effect by foliage application, plastic box (Table 20, symbol O); type: in vivo, lambsquarters (Chenopodium album); conditions: 320 g/ha
In short: as §3

[12] = tested on: wild oat; assay: Test Example 4: herbicidal effect by soil treatment (Table 19, symbol I); type: in vivo, wild oat (Avena fatua)
In short: as §2

[13] = tested on: oval-leafed pondweed; assay: Test Example 2: herbicidal activity, application during weed generation under submerged conditions (Table 17, symbol C); type: in vivo, oval-leafed pondweed (Monochoria vaginalis); conditions: AAH 320 g/ha; application during weed generation, submerged conditions
In short: as §4

[14] = tested on: rice flat sedge; assay: Test Example 3: herbicidal effect by foliage application, Wagner pot (Table 18, symbol E); type: in vivo, rice flat sedge (Cyperus iria); conditions: 320 g/ha
In short: as §1

[15] = tested on: windgrass; assay: Test Example 4: herbicidal effect by soil treatment (Table 19, symbol L); type: in vivo, windgrass (Apera spica-venti)
In short: as §2

[16] = tested on: persian speedwell; assay: Test Example 4: herbicidal effect by soil treatment (Table 19, symbol R); type: in vivo, Persian speedwell (Veronica persica)
In short: as §2

[17] = tested on: barnyard grass; assay: Test Example 5: herbicidal effect by foliage application, plastic box (Table 20, symbol H); type: in vivo, barnyard grass (Echinochloa crus-galli); conditions: 320 g/ha
In short: as §3

[18] = tested on: lambsquarters; assay: Test Example 4: herbicidal effect by soil treatment (Table 19, symbol O); type: in vivo, lambsquarters (Chenopodium album)
In short: as §2

[19] = tested on: chickweed; assay: Test Example 4: herbicidal effect by soil treatment (Table 19, symbol P); type: in vivo, common chickweed (Stellaria media)
In short: as §2

[20] = tested on: Chinese sprangletop; assay: Test Example 3: herbicidal effect by foliage application, Wagner pot (Table 18, symbol D); type: in vivo, chinese sprangletop (Leptochloa chinensis); conditions: 320 g/ha
In short: as §1

[21] = tested on: blackgrass; assay: Test Example 4: herbicidal effect by soil treatment (Table 19, symbol J); type: in vivo, blackgrass (Alopecurus myosuroides)
In short: as §2

[22] = tested on: windgrass; assay: Test Example 5: herbicidal effect by foliage application, plastic box (Table 20, symbol L); type: in vivo, windgrass (Apera spica-venti); conditions: 320 g/ha
In short: as §3

[23] = tested on: velvetleaf; assay: Test Example 5: herbicidal effect by foliage application, plastic box (Table 20, symbol M); type: in vivo, velvetleaf (Abutilon theophrasti); conditions: foliage application, 320 g/ha, 3 weeks after application
In short: as §3

[24] = tested on: persian speedwell; assay: Test Example 5: herbicidal effect by foliage application, plastic box (Table 20, symbol R); type: in vivo, Persian speedwell (Veronica persica); conditions: 320 g/ha
In short: as §3

[25] = tested on: Japanese bulrush; assay: Test Example 2: herbicidal activity, application during weed generation under submerged conditions (Table 17, symbol B); type: in vivo, Japanese bulrush (Schoenoplectus juncoides); conditions: AAH 320 g/ha; application during weed generation, submerged conditions
In short: as §4

[26] = tested on: wild oat; assay: Test Example 5: herbicidal effect by foliage application, plastic box (Table 20, symbol I); type: in vivo, wild oat (Avena fatua); conditions: 320 g/ha
In short: as §3

[27] = tested on: Italian ryegrass; assay: Test Example 4: herbicidal effect by soil treatment (Table 19, symbol K); type: in vivo, Italian ryegrass (Lolium multiflorum)
In short: as §2

[28] = tested on: green foxtail; assay: Test Example 4: herbicidal effect by soil treatment (Table 19, symbol G); type: in vivo, green foxtail (Setaria viridis)
In short: as §2

[29] = tested on: chickweed; assay: Test Example 5: herbicidal effect by foliage application, plastic box (Table 20, symbol P); type: in vivo, common chickweed (Stellaria media); conditions: 320 g/ha, foliage application after 14-day growth, evaluated three weeks after application
In short: as §3

[30] = tested on: redroot pigweed; assay: Test Example 5: herbicidal effect by foliage application, plastic box (Table 20, symbol N); type: in vivo, redroot pigweed (Amaranthus retroflexus); conditions: 320 g/ha, foliage application after 14-day growth, evaluated three weeks after application
In short: as §3

[31] = foliage application, 3 weeks after application
[32] = amount of applied herbicide 320 g/ha
[33] = foliage application after 14-day growth, evaluated three weeks after application

## CCCC(=O)Oc1c(C)nn(C)c(=O)c1-c1c(-c2ccc(C(F)(F)F)cc2)sc2ccc(F)cc12 [2-021]
[1]
  herbicidal effect on H (barnyard grass), rating 0-5: 5 (Herbicidal rate of 90% or more (almost completely withered))
[2]; 320 g/ha
  herbicidal effect rating, H: barnyard grass: 4 (Herbicidal rate of 70% or more and less than 90%)
[3]; [31]
  effect on blackgrass (J): 3 (Herbicidal rate of 40% or more and less than 70%)
[4]; [31]
  effect on southern crabgrass (F): 4 (Herbicidal rate of 70% or more and less than 90%)
[5]; 320 g/ha
  herbicidal effect rating, M: velvetleaf: 4 (Herbicidal rate of 70% or more and less than 90%)
[6]; 320 g/ha
  herbicidal effect rating, N: redroot pigweed: 5 (Herbicidal rate of 90% or more (almost completely withered))
[7]; 320 g/ha
  herbicidal effect rating, F: southern crabgrass: 5 (Herbicidal rate of 90% or more (almost completely withered))
[8]
  herbicidal effect rating, A: late watergrass: 0 (Herbicidal rate of 5% or less (almost no effect))
[9]; [31]
  effect on green foxtail (G): 5 (Herbicidal rate of 90% or more (almost completely withered))
[10]; [31]
  effect on Italian ryegrass (K): 5 (Herbicidal rate of 90% or more (almost completely withered))
[11]; [31]
  effect on lambsquarters (O): 5 (Herbicidal rate of 90% or more (almost completely withered))
[12]; 320 g/ha
  herbicidal effect rating, I: wild oat: 0 (Herbicidal rate of 5% or less (almost no effect))
[13]
  herbicidal effect rating, C: oval-leafed pondweed: 0 (Herbicidal rate of 5% or less (almost no effect))
[14]
  herbicidal effect on E (rice flat sedge), rating 0-5: 5 (Herbicidal rate of 90% or more (almost completely withered))
[15]; 320 g/ha
  herbicidal effect rating, L: windgrass: 5 (Herbicidal rate of 90% or more (almost completely withered))
[16]; 320 g/ha
  herbicidal effect rating, R: persian speedwell: 5 (Herbicidal rate of 90% or more (almost completely withered))
[17]; [31]
  effect on barnyard grass (H): 5 (Herbicidal rate of 90% or more (almost completely withered))
[18]; 320 g/ha
  herbicidal effect rating, O: lambsquarters: 5 (Herbicidal rate of 90% or more (almost completely withered))
[19]; 320 g/ha
  herbicidal effect rating, P: chickweed: 5 (Herbicidal rate of 90% or more (almost completely withered))
[20]
  herbicidal effect on D (Chinese sprangletop), rating 0-5: 3 (Herbicidal rate of 40% or more and less than 70%)
[21]; 320 g/ha
  herbicidal effect rating, J: blackgrass: 0 (Herbicidal rate of 5% or less (almost no effect))
[22]; [31]
  effect on windgrass (L): 5 (Herbicidal rate of 90% or more (almost completely withered))
[23]
  effect on velvetleaf (M): 5 (Herbicidal rate of 90% or more (almost completely withered))
[24]; [31]
  effect on persian speedwell (R): 5 (Herbicidal rate of 90% or more (almost completely withered))
[25]
  herbicidal effect rating, B: Japanese bulrush: 2 (Herbicidal rate of 20% or more and less than 40%)
[26]; [31]
  effect on wild oat (I): 5 (Herbicidal rate of 90% or more (almost completely withered))
[27]; 320 g/ha
  herbicidal effect rating, K: Italian ryegrass: 5 (Herbicidal rate of 90% or more (almost completely withered))
[28]; 320 g/ha
  herbicidal effect rating, G: green foxtail: 5 (Herbicidal rate of 90% or more (almost completely withered))

## CCCC(=O)Oc1c(C)nn(C)c(=O)c1-c1c(-c2ccccc2OC)sc2c(Cl)cccc12 [4-022]
[1]
  herbicidal effect on barnyard grass (H): 5 (Herbicidal rate of 90% or more (almost completely withered))
[2]; [32]
  Herbicidal effect by soil treatment, H: barnyard grass: 3 (Herbicidal rate of 40% or more and less than 70%)
[3]; [33]
  herbicidal effect on J: blackgrass (evaluation grade 0-5): 0 (Herbicidal rate of 5% or less (almost no effect))
[4]; [33]
  herbicidal effect on F: southern crabgrass (evaluation grade 0-5): 0 (Herbicidal rate of 5% or less (almost no effect))
[5]; [32]
  Herbicidal effect by soil treatment, M: velvetleaf: 0 (Herbicidal rate of 5% or less (almost no effect))
[6]; [32]
  Herbicidal effect by soil treatment, N: redroot pigweed: 3 (Herbicidal rate of 40% or more and less than 70%)
[7]; [32]
  Herbicidal effect by soil treatment, F: southern crabgrass: 3 (Herbicidal rate of 40% or more and less than 70%)
[8]
  herbicidal effect rating, A: late watergrass: 0 (Herbicidal rate of 5% or less (almost no effect))
[9]; [33]
  herbicidal effect on G: green foxtail (evaluation grade 0-5): 2 (Herbicidal rate of 20% or more and less than 40%)
[10]; [33]
  herbicidal effect on K: Italian ryegrass (evaluation grade 0-5): 1 (Herbicidal rate of 5% or more and less than 20%)
[11]; [33]
  herbicidal effect on O: lambsquarters (evaluation grade 0-5): 0 (Herbicidal rate of 5% or less (almost no effect))
[12]; [32]
  Herbicidal effect by soil treatment, I: wild oat: 0 (Herbicidal rate of 5% or less (almost no effect))
[13]
  herbicidal effect rating, C: oval-leafed pondweed: 0 (Herbicidal rate of 5% or less (almost no effect))
[14]
  herbicidal effect on rice flat sedge (E): 4 (Herbicidal rate of 70% or more and less than 90%)
[15]; [32]
  Herbicidal effect by soil treatment, L: windgrass: 0 (Herbicidal rate of 5% or less (almost no effect))
[16]; [32]
  Herbicidal effect by soil treatment, R: persian speedwell: 0 (Herbicidal rate of 5% or less (almost no effect))
[17]; [33]
  herbicidal effect on H: barnyard grass (evaluation grade 0-5): 4 (Herbicidal rate of 70% or more and less than 90%)
[18]; [32]
  Herbicidal effect by soil treatment, O: lambsquarters: 2 (Herbicidal rate of 20% or more and less than 40%)
[19]; [32]
  Herbicidal effect by soil treatment, P: chickweed: 1 (Herbicidal rate of 5% or more and less than 20%)
[20]
  herbicidal effect on Chinese sprangletop (D): 5 (Herbicidal rate of 90% or more (almost completely withered))
[21]; [32]
  Herbicidal effect by soil treatment, J: blackgrass: 0 (Herbicidal rate of 5% or less (almost no effect))
[22]; [33]
  herbicidal effect on L: windgrass (evaluation grade 0-5): 5 (Herbicidal rate of 90% or more (almost completely withered))
[24]; [33]
  herbicidal effect on R: persian speedwell (evaluation grade 0-5): 3 (Herbicidal rate of 40% or more and less than 70%)
[25]
  herbicidal effect rating, B: Japanese bulrush: 2 (Herbicidal rate of 20% or more and less than 40%)
[26]; [33]
  herbicidal effect on I: wild oat (evaluation grade 0-5): 0 (Herbicidal rate of 5% or less (almost no effect))
[27]; [32]
  Herbicidal effect by soil treatment, K: Italian ryegrass: 0 (Herbicidal rate of 5% or less (almost no effect))
[29]
  herbicidal effect on P: chickweed (evaluation grade 0-5): 5 (Herbicidal rate of 90% or more (almost completely withered))
[30]
  herbicidal effect on N: redroot pigweed (evaluation grade 0-5): 3 (Herbicidal rate of 40% or more and less than 70%)
[28]; [32]
  Herbicidal effect by soil treatment, G: green foxtail: 3 (Herbicidal rate of 40% or more and less than 70%)

Source: patent publication US20230085307A1, “PYRIDAZINONE COMPOUND AND HERBICIDE” (NISSAN CHEMICAL CORPORATION, priority 2019, published 2023)
